In PMC10952895, “Assessment of the potential of novel and classical opioids to induce respiratory depression in mice” (British Journal of Pharmacology, 2023):

test system: T1, μ-receptor (μ-receptor-RLuc8); test: BRET, Nb33-Venus recruitment to μ-receptor-RLuc8 in HEK293 cells; type: cell-based; details: agonist; 10 min after addition, normalised to DAMGO
T1 construct: gene Oprm1; construct from Gillis, Gondin et al. 2020

Compared with `COc1ccsc1CNCC[C@@]1(c2ccccn2)CCOC2(CCCC2)C1` [oliceridine], `COc1ccc2c3c1O[C@H]1C(=O)CC[C@@]4(O)[C@@H](C2)N(C)CC[C@]314` [oxycodone] is lower in pEC50: 6.8 ± 0.1 for the first, 5.8 ± 0.05 for the second.

Work on `CN1c2ccccc2C(NCCCCCCC(=O)O)c2ccc(Cl)cc2S1(=O)=O` (stereo not drawn) [tianeptine] yielded a pEC50 of 5.8 ± 0.07.
